Like-named read-outs stand apart in the source and are kept apart here.
Experiments:
[1] = Cd^2+, cited from earlier work
[2] = Decorporation of Cobalt-60: tissue distribution and excretion of IV administered Co-60 in rats; type: in vivo, Male Wistar-Han rats; conditions: for Co-60 Dose % for animal group: single IV Co-60 14 KBq, 48 hr post exposure; for effect on total Co-60 excretion (urine and feces): monitored 2 days, not statistically significant, 15 mg/kg
Experimental: Materials. Chloride stock solution of ^60Co as ^60CoCl2 was diluted with sterile saline solution to adjust to the desired activity and used for the IV dosing. Activity of the dosing solution was determined using automated Wallac 1480 (Perkin Elmer) gamma counter equipped with 3 inch NaI(TI) crystal shielded detector.
Animals. Male Wistar-Han rats were obtained from Charles River Breeding Laboratory (Raleigh, N.C.) with indwelling jugular vein cannula. Animals were provided food and water ad libitum during acclimatization. The light cycle was 12 hour light/12 hour dark and relative humidity and temperature maintained at 50±15% and 22±2° C. All animal use protocols were approved by the Institutional Animal Care and Use Committee at Battelle, Pacific Northwest Division and studies were performed according to the “Guide for the Care and Use of Laboratory Animals” (National Research Council, Washington D.C., 1996).
Dosing regimen. Animals were restricted from food overnight prior to exposure. At the time of exposure, groups of animals (N=6) received a single intravenous (IV) injection (0.2 mL) of ^60Co solution at 14.0±0.6 KBq dose in sterile saline via an indwelling jugular vein cannula. […] The actual doses delivered were calculated based on the individual animal weights (Table 3). One group of animals was dosed with the radionuclide without subsequent administration of the chelation material to serve as control group. Following dosing, animals were placed in Nalgene metabolism cages for separate collection of urine and feces. […] Animals were sacrificed 48 hr post radionuclide administration. At sacrifice, blood and tissues (liver, kidney, spleen, gastrointestinal tract, muscle, bone, bone marrow, and lung) were collected, weighed and counted for radioactivity using a Wallac 1480 gamma counter. Gamma count data were normalized to percent administered dose after adjusting the grams of tissue collected for total organ mass.
Data statistical evaluation. Each data group was subjected to Dixon's Q-test to evaluate for potential outliers. In this test Q parameter of 0.625 (N=6, 95% confidence level, a=0.05) was used (1). For each tissue, a preliminary F-test (95% confidence level, a=0.05) for the equality of variances of the control and each treatment group was performed using Excel software. If the calculated probability p value was less than 0.05, the variances were assumed to be not equal. Based on this information, “T-test: Two-Sample Assuming Unequal Variances” or “T-test: Two-Sample Assuming Equal Variances” (95% confidence level, a=0.05) was performed using Excel software. The calculated p-value less than 0.05 provides evidence to reject the null hypothesis of equal means. The obtained statistical parameters listed in Table 4 served as guidelines for data evaluation (Table 5; calculation assumes that total skeleton, blood, or muscle is approximately 7.3, 6, or 40% of the body weight of the animal, respectively; Co-60 in skeleton is calculated based on the femur data—R. P. Brown, M. D. Delp, S. L. Undstedt, L. R. Rhomberg, and R. P. Beliles, Physiological Parameter Values for Physiologically Based Pharmacokinetic Models. Toxicology and Industrial Health, 1997, 13(4): 407-484).

[3] = Decorporation of Polonium-210: tissue distribution of IV administered Po-210 in rats; type: in vivo, Wistar-Han rats; conditions: for % Reduction of Po-210 vs Po-210 Control / effect on polonium-210 level (in words): oral 15 mg/kg x 5, day 6; for Po-210 dpm/gm for animal group: single IV Po-210 approx. 90 kBq, oral 15 mg/kg every 24 h x 5, sacrifice day 6
Experimental: The digested sample was diluted with distilled water to reduce the nitric acid to approximately 1 M. An aliquot of the resulting solution was added to Ultima Gold XR liquid scintillation cocktail (Packard BioScience, Meriden, Conn.), counted and corrected for possible quenching.

[4] = Cu^1+, cited from earlier work
[5] = Hg^2+, cited from earlier work
[6] = Ni^2+, cited from earlier work
[7] = Ag^1+, cited from earlier work
[8] = Zn^2+, cited from earlier work
[9] = Pb^2+, cited from earlier work
[10] = Co^2+; cited from earlier work
[11] = single oral dose 15 mg/kg, day 1 post exposure

Structure (SMILES): CC(C)(S)[C@@H](N)C(=O)O [Penicillamine, 3-mercapto-D-valine]
- binding stability constant (log K) [1]: 11.55
- binding stability constant (log K) ([1]; listed as penicillamine): fairly strong
- Co-60 Dose % for animal group ([2]; Blood, single oral dose 15 mg/kg): 0.089 ± 0.014%
- % Reduction of Co-60 vs Co-60 Control ([2]; Blood, single oral dose 15 mg/kg, 48 hr): 0%
- Co-60 Dose % for animal group ([2]; Bone Marrow, single oral dose 15 mg/kg): Below detection
- Co-60 Dose % for animal group ([2]; Intestine, single oral dose 15 mg/kg): 0.94 ± 0.25%
- % Reduction of Co-60 vs Co-60 Control ([2]; Intestine, single oral dose 15 mg/kg, 48 hr): 47%
- Co-60 Dose % for animal group ([2]; Kidney, single oral dose 15 mg/kg): 0.31 ± 0.07%
- % Reduction of Co-60 vs Co-60 Control ([2]; Kidney, single oral dose 15 mg/kg, 48 hr): 56%
- Co-60 Dose % for animal group ([2]; Liver, single oral dose 15 mg/kg): 0.99 ± 0.25%
- % Reduction of Co-60 vs Co-60 Control ([2]; Liver, single oral dose 15 mg/kg, 48 hr): 51%
- Co-60 Dose % for animal group ([2]; Lung, single oral dose 15 mg/kg): 0.16 ± 0.07%
- % Reduction of Co-60 vs Co-60 Control ([2]; Lung, single oral dose 15 mg/kg, 48 hr): 0%
- Co-60 Dose % for animal group ([2]; Muscle, single oral dose 15 mg/kg): 0.63 ± 0.18%
- % Reduction of Co-60 vs Co-60 Control ([2]; Muscle, single oral dose 15 mg/kg, 48 hr): 39%
- Co-60 Dose % for animal group ([2]; Spleen, single oral dose 15 mg/kg): 0.056 ± 0.007%
- % Reduction of Co-60 vs Co-60 Control ([2]; Spleen, single oral dose 15 mg/kg, 48 hr): 0%
- Co-60 Dose % for animal group ([2]; Stomach, single oral dose 15 mg/kg): 0.041 ± 0.014%
- % Reduction of Co-60 vs Co-60 Control ([2]; Stomach, single oral dose 15 mg/kg, 48 hr): 45%
- Co-60 Dose % for animal group ([2]; Total Skeleton (from femur data), single oral dose 15 mg/kg): 0.32 ± 0.17%
- % Reduction of Co-60 vs Co-60 Control ([2]; Total Skeleton, single oral dose 15 mg/kg, 48 hr): 49%
- effect on blood levels of Co-60 ([2]; single oral dose 15 mg/kg, 48 hr): slightly decreased
- effect on urinary elimination of Co-60 [2, 11]: did not change
- increase of fecal elimination of Co-60 [2, 11]: about 3%
- effect on total Co-60 excretion (urine and feces) ([2]; single oral dose 15 mg/kg): slightly increased
- effect on total Co-60 excretion (urine and feces) ([2]; single oral dose 15 mg/kg, listed as penicillamine): appeared to accelerate
- reduction in the fraction of administered dose in the skeleton (based on femur data), liver and kidney ([2]; single oral dose, Co-60): 51-56%
- % Reduction of Po-210 vs Po-210 Control ([3]; Blood): 18%
- Po-210 dpm/gm for animal group ([3]; Blood): 28482 ± 6375 dpm/gm
- Po-210 dpm/gm for animal group ([3]; Femur): 22969 ± 4055 dpm/gm
- % Reduction of Po-210 vs Po-210 Control ([3]; Kidney): −15%
- Po-210 dpm/gm for animal group ([3]; Kidney): 216172 ± 31993 dpm/gm
- % Reduction of Po-210 vs Po-210 Control ([3]; Liver): 12%
- Po-210 dpm/gm for animal group ([3]; Liver): 124648 ± 47423 dpm/gm
- % Reduction of Po-210 vs Po-210 Control ([3]; Lung): 20%
- effect on polonium-210 level (in words) ([3]; Lung): reduced
- Po-210 dpm/gm for animal group ([3]; Lung): 67342 ± 7895 dpm/gm
- Po-210 dpm/gm for animal group ([3]; Spleen): 236736 ± 35488 dpm/gm
- % Reduction of Po-210 vs Po-210 Control ([3]; femur): 13%
- effect on polonium-210 level (in words) ([3]; femur): reduced
- % Reduction of Po-210 vs Po-210 Control ([3]; spleen): 44%
- effect on polonium-210 level (in words) ([3]; spleen): reduced
- binding stability constant (log K) [4]: 18.18 (Cu^1+)
- binding stability constant (log K) ([4]; listed as penicillamine): very strongly
- binding stability constant (log K) [5]: 16.3
- binding stability constant (log K) ([5]; listed as penicillamine): very strongly
- binding stability constant (log K) [6]: 10.70
- binding stability constant (log K) ([6]; listed as penicillamine): fairly strong
- binding stability constant (log K) [7]: 12.4
- binding stability constant (log K) ([7]; listed as penicillamine): fairly strong
- binding stability constant (log K) [8]: 9.71
- binding stability constant (log K) ([8]; listed as penicillamine): fairly strong
- binding stability constant (log K) [9]: 12.3
- binding stability constant (log K) ([9]; listed as penicillamine): fairly strong
- binding stability constant (log K) [10]: 8.98

Reference: patent US20090030079A1 (priority 2007, published 2009)
